According to patent publication US7312358B2, “Pharmaceutically active sulfanilide derivatives” (Laboratoires Serono SA, priority 2000, dated 2007):

Tests used:
ratOT-R = target: T1, ratOT-R (Rattus norvegicus, UniProt P70536); assay: Inhibition of IP3 (inositol tri-phosphate)-synthesis in HEK/EBNA-OTR cells; format: cell-based; details: [3H]-inositol, oxytocin 10 nM
T1 construct: expressed in transfected cells; host or cells: HEK/EBNA cells
T1 sequence (P70536 1-388): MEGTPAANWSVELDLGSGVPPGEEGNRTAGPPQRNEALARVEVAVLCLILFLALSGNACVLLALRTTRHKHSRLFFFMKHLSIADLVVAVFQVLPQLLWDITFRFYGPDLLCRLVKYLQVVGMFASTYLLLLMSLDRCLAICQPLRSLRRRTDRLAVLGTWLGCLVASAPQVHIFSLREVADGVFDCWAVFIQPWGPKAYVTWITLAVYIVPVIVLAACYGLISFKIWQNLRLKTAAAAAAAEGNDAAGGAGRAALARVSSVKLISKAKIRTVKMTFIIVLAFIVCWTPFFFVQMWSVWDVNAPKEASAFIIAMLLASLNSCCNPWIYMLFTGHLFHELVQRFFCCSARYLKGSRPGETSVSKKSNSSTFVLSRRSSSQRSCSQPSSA
Description: e) Functional Assay No. 2: Inhibition of IP3 (Inositol Tri-Phosphate)-Synthesis in HEK/EBNA-OTR Cells
This assay intends to show the inhibition of the OT/OT-R mediated IP3 synthesis—being necessary to cause uterine contractions—by using test compounds of formula (I).
Stimulation of the cells: IIEK/EBNA OTR(rat or human) cells were plated out into costar 12-well plates, and equilibrated for 15-24 h with [^3H]-inositol radiolabel in medium without inositol supplement, with 1% FCS (0.5 ml/well). 4 μCi/ml were used. After this, the medium containing the label was aspirated. Then was added DMEM (without FCS, inositol), 20 mM Hepes (4-(2-hydroxyethyl)-1-piperazine-ethane-sulphonic acid), 1 mg/ml BSA containing 10 mM LiCl (freshly prepared), for […] at 37° C. The agonist (i.e. oxytocin used at a concentration of 10 nM) and the antagonists (i.e. the tests compounds of formula (1) used in a concentration of 10 μM, 1 μM, 300 nM, 100 nM, 10 nM, 1 nM, 100 pM, 10 pM, 3 pM) were added for the time required (15-45 min), followed by aspiration of the medium. Due to the […] of the OT receptor, the radiolabeled inositol is phosphorylated to yield IP3, the amount of the radiolabeled IP3 may be determined through the ensuing work-up. The reaction was stopped with 1 ml STOP-solution (i.e. 0.4 M perchloric acid), and let sit for 5-10 min at Room Temperature. Then, 0.8 ml were transferred into tubes containing 0.4 ml of neutralizing solution (0.72 M KOH/0.6M KHCO3), and the tubes vortexed and kept in the cold at least for 2 h.
Separation of IP's: The samples were spun in a table top centrifuge at 3000-4000 rpm for 15 min. 1 ml of the supernatant was transferred to new tubes containing 2.5 ml H2O. Packed resin (0.8 ml) was equilibrated with 20 ml H2O, and the whole samples poured onto the chromatography columns, thus separating the mixture. To discard free inositol, two washes with 10 ml H2O were carried out.
Elution of total IP's: The elution was achieved using 3 ml 1M ammonium formate/0.1M formic acid. The eluant was collected in scintillation counting tubes, followed by addition of 7 ml of scintillation liquid. The amount of IP3 is determined by a scintillating counter.
The activities of the sulfanilide derivatives claimed in the formula I were assessed using the above described in vitro biological assay. The values refer to the capacity of the example compounds according to formula I to effectively antagonize oxytocin-induced IP3-synthesis mediated by the oxytocin receptor.

[1] = system: oxytocin-induced uterine contractions in the rat; assay: In vivo model for inhibition of uterine contractions; details: anaesthetised DES-treated non-pregnant female rat, route not given
Description: f) In Vivo Model for Inhibition of Uterine Contractions
The assay intends to show the biological effect of tested compounds in an in vivo model of preterm labor, premature birth.
Non-pregnant Charles River CD(SD) BR female rats (9-10 weeks old, 200-250 g) were treated at 18 and 24 hours before the experiment with 250 μg/kg, i.p. diethylstilbestrol (DES). For the assay, the animal was anaesthetised by urethane (1.75 g/kg, i.p.) and placed on an homeothennic operating table. The trachea was isolated and cannulated with a suitable polyethylene (PE) tubing. A midline incision at the hypogastrium level was made and one uterine horn exposed, its cephalic end cannulated with a PE240 tubing and, after filling the internal cavity with 0.2 ml of sterile physiological saline, connected to a “Gemini” amplifying/recording system via a P231D Gould Statham pressure transducer. For the i.v. route of administration of the test compounds, one jugular vein was isolated and cannulated with a PE60 tubing connected to a butterfly needle to allow the administration by a dispensing syringe. In the case of intraduodenal administration of the test compounds, the duodenum was isolated and similarly cannulated through a small incision in its wall. One carotid artery was also isolated and cannulated with PE60 catheter and connected to a suitable syringe for blood sample collection (see below). After a stabilization period, the same dose of oxytocin was repeatedly injected intravenously at 30-min intervals. […] Further injections of the same dose of oxytocin were then made for a suitable time after treatment to assess inhibitory effects of the compounds under study. The contractile response of the uterus to oxytocin was quantified by measuring the intra-uterine pressure and the number of contractions. The effect of the reference and test compounds were evaluated by comparing pre- and post-treatment pressure values. In addition, at 2, 30, 90 and 210 minutes after test compound administration, a 0.5-ml blood sample was withdrawn from the cannulated carotid artery of each experimental animal. Plasma was obtained by standard laboratory procedure and the resulting samples were stored at −20° C.
The activities of the sulfanilide derivatives claimed in the Formula I were assessed using the above described in vivo biological assay. The values refer to the capacity of the example compound according to Formula I to effectively antagonize oxytocin-induced uterine contractions in the rat.

With `CCOc1ccc(S(=O)(=O)N(CC(=O)N/N=C2/C(=O)Nc3ccccc32)c2ccc(C)cc2)cc1` [Example 5, 4-ethoxy-N-(4-methylphenyl)-N-{2-oxo-2-[2-(2-oxo-1,2-dihydro-3H-indol-3-ylidene)hydrazino]ethyl}benzenesulfonamide] the IC50 (ratOT-R) was 13 nM, the “% Reduction of Uterine Contraction” value ([1]; dose 5 mg/kg) was 23.9 ± 4.0% and the “% Reduction of Uterine Contraction” value ([1]; dose 7.5 mg/kg) was 40.3 ± 4.2%. For the same compound, the “% Reduction of Uterine Contraction” value ([1]; dose 10 mg/kg) was 62.6 ± 5.0%.
